According to patent US20020082180A1, “Fabric cleaning system” (Unilever Home & Personal Care USA, Division of Conopco, Inc., priority 2000, published 2002):

Assay: log P, partitioning coefficient of the fluorescer between octanol and water
Format: physicochemical
Conditions: octanol/water at ambient temperature
Text: We have found the fluorescers of the present invention to be very effective when used with carbon dioxide whilst the fluorescers are readily soluble in carbon dioxide without the need for surfactants. A preferable selection of fluorescers can be described by their log P value. Log P being the partitioning coefficient of the fluorescer between octanol and water at ambient temperature, whereby P is the concentration of the fluorescer in octanol divided by the concentration of fluorescer in water. (Leo et al. Chem Rev 1971, 71, 525). If appropriate, the log P is determined in the presence of sodium and/or chloride as counterions. Accordingly, a preferred group of fluorescer has a log P of at least 2, more preferably at least 2.5. In many cases, the log P may also be estimated using specially designed programs, also described as clog P or calculated log P. However, if in certain cases these programs are inappropriate, the real log P should be measured.

log P: > 2.5
SMILES: c1ccc2oc(-c3ccc(-c4nc5ccccc5o4)s3)nc2c1 [Tinopal™ SOP]
